Results published in patent publication US20260209152A1, “Substituted Hydroxystilbene Compounds and Derivatives, Synthesis and Uses Thereof” (Kynan Duke IP, LLC, priority 2019, published 2026).
pIC50: −log10 of the molar value. Like-named read-outs stand apart in the source and are kept apart here. Blank lines part the entries; values can stand above or below the compound they belong to.

What was measured:
Test in all cases: CellTiter Glo cell viability assay
Assay type in all cases: cell-based, human
Colon HCT_116 = details: for pIC50: Homo sapiens
How it was run: (§1)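 Cells were seeded at 1.7*10^3 cells/well in quadruplicate and treated with 18 two-fold dilutions from 5 μM (0.000038146–5 μM), or with 1, 2, 5, 10 and 20 μM. Viability was read by CellTiter Glo luminescence on days 1, 3 and 5, and IC50 came from nonlinear regression of RLU against log dose.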

Kidney ACHN = details: for pIC50: Homo sapiens, ACHN
How it was run: as §1

Bladder RT-112 = details: for pIC50: Homo sapiens
How it was run: as §1

Liver Huh7 = details: for pIC50: Homo sapiens, Huh-7, 72 h, 3 Days of treatment, 18 2-fold dilutions 5-0.00003 μM
How it was run: as §1

Osteosarcomas T1-73 = details: for pIC50: Homo sapiens, 72 h, 3 Days of treatment, 18 2-fold dilutions 5-0.00003 μM
How it was run: as §1

Liposarcoma 94T778 = details: for pIC50: Homo sapiens, 72 h, 3 Days of treatment, 18 2-fold dilutions 5-0.00003 μM
How it was run: as §1

Pancreatic CAPAN-1 = details: for pIC50: Homo sapiens, CAPAN-1, 72 h, 18 2-fold dilutions 5-0.00003 μM
How it was run: as §1

Lung BEAS-2B = details: for pIC50: Homo sapiens, BEAS-2B, 72 h, 3 Days of treatment, 18 2-fold dilutions 5-0.00003 μM
How it was run: as §1

Liver JHH-7 = details: for pIC50: Homo sapiens, JHH7, 72 h, 3 Days of treatment, 18 2-fold dilutions 5-0.00003 μM
How it was run: as §1

Bladder 5637 = details: for pIC50: Homo sapiens
How it was run: as §1

Liver JHH-6 = details: for pIC50: Homo sapiens, 72 h, 3 Days of treatment, 18 2-fold dilutions 5-0.00003 μM
How it was run: as §1

Leiomyosarcoma SK-UT-1B = details: for pIC50: Homo sapiens, Skut1B, 72 h, 3 Days of treatment, 18 2-fold dilutions 5-0.00003 μM
How it was run: as §1

Osteosarcomas SJSA_1 = details: for pIC50: Homo sapiens, SJSA-1, 72 h, 3 Days of treatment, 18 2-fold dilutions 5-0.00003 μM
How it was run: as §1

Pancreatic CFPAC = details: for pIC50: Homo sapiens, 72 h, 3 Days of treatment, 18 2-fold dilutions 5-0.00003 μM
How it was run: as §1

Osteosarcomas Hs888.T = details: for pIC50: Homo sapiens, 72 h, 3 Days of treatment, 18 2-fold dilutions 5-0.00003 μM
How it was run: as §1

[1] = tested on: Connective Tissue Sarcoma HT-1080; details: for pIC50: Homo sapiens, HT-1080, 72 h, 3 Days of treatment, 18 2-fold dilutions 5-0.00003 μM
How it was run: as §1

Osteosarcomas MG3 = details: for pIC50: Homo sapiens, 72 h, 3 Days of treatment, 18 2-fold dilutions 5-0.00003 μM
How it was run: as §1

[2] = tested on: Connective Tissue Sarcoma TE 381.T; details: for pIC50: Homo sapiens, TE 381.T, 72 h, 3 Days of treatment, 18 2-fold dilutions 5-0.00003 μM
How it was run: as §1

Bladder SW780 = details: for pIC50: Homo sapiens, SW780, 72 h, 3 Days of treatment, 18 2-fold dilutions 5-0.00003 μM
How it was run: as §1

Osteosarcomas KHOS_N/P = details: for pIC50: Homo sapiens, KHOS/NP, 72 h, 3 Days of treatment, 18 2-fold dilutions 5-0.00003 μM
How it was run: as §1

Bladder TCCSUP = details: for pIC50: Homo sapiens, TCC-SUP, 72 h, 3 Days of treatment, 18 2-fold dilutions 5-0.00003 μM
How it was run: as §1

Lung NCI-H661 = details: for pIC50: Homo sapiens, NCI-H661, 72 h, 3 Days of treatment, 18 2-fold dilutions 5-0.00003 μM
How it was run: as §1

[3] = HCT-116, 72 h, 3 Days of treatment, 18 2-fold dilutions 5-0.00003 μM, read-out: Average IC50
[4] = HCT-116, 120 h, Day 5 upon drug treatment, 10 dosages 0.0001-20 μM (Compound 8: 18 dosages 0.000038146 to 5 μM), read-out: IC50
[5] = 72 h, 3 Days of treatment, 18 2-fold dilutions 5-0.00003 μM, read-out: Average IC50
[6] = 72 h, Table 4: 3 Days of treatment, 18 2-fold dilutions 5-0.00003 μM, Average (1, 8) or single Exp A-D, read-out: IC50
[7] = 120 h, Day 5 upon drug treatment, 10 dosages 0.0001-20 μM (Compound 8: 18 dosages 0.000038146 to 5 μM), read-out: IC50
[8] = RT-112, 72 h, 3 Days of treatment, 18 2-fold dilutions 5-0.00003 μM, read-out: Average IC50
[9] = RT-112, 72 h, Table 4: 3 Days of treatment, 18 2-fold dilutions 5-0.00003 μM, Average (1, 8) or single Exp A-D, read-out: IC50
[10] = RT-112, 120 h, Day 5 upon drug treatment, 10 dosages 0.0001-20 μM (Compound 8: 18 dosages 0.000038146 to 5 μM), read-out: IC50
[11] = 3 Days of treatment, read-out: Average IC50
[12] = Table 4: 3 Days of treatment, Average (1, 8) or single Exp A-D, read-out: IC50
[13] = IC50 of 1 [KYN-001] vs 8 [KYN-119], 3 Days

pIC50 (Colon HCT_116; [3]): 6.38 | pIC50 (Colon HCT_116; [4]): 6.78 | pIC50 (Kidney ACHN; [5]): 6.31 | pIC50 (Kidney ACHN; [6]): 6.30 | pIC50 (Kidney ACHN; [7]): 7.05 | pIC50 (Liver Huh7): 7.10 | pIC50 (Liposarcoma 94T778): 7.07 | pIC50 (Leiomyosarcoma SK-UT-1B): 7.65 | pIC50 (Osteosarcomas SJSA_1): 5.64 | pIC50 [1]: 7.44 | pIC50 [2]: 7.45 | pIC50 (Bladder SW780): 6.15 | pIC50 (Lung NCI-H661): 7.44
SMILES: COc1cc(/C=C/c2cc(O)cc(OC)c2CC=C(C)C)ccc1O [Compound 1, (E)-3-(4-hydroxy-3-methoxystyryl)-5-methoxy-4-(3-methylbut-2-en-1-yl)phenol]
pIC50 (Bladder RT-112; [8]): 7.28 | pIC50 (Bladder RT-112; RT-112, 72 h, Day 3 upon drug treatment, 10 dosages 0.0001-20 μM, read-out: IC50): 6.98 | pIC50 (Bladder RT-112; [9]): 7.57 | pIC50 (Bladder RT-112; [10]): 7.54 | pIC50 (Osteosarcomas T1-73): 6.09 | pIC50 (Pancreatic CAPAN-1; [11]): 5.21 | pIC50 (Pancreatic CAPAN-1; [12]): 5.84 | pIC50 (Lung BEAS-2B): 7.12 | pIC50 (Liver JHH-7): 6.16 | pIC50 (Bladder 5637; [5]): 7.46 | pIC50 (Bladder 5637; [7]): 7.51 | pIC50 (Liver JHH-6): 6.76 | pIC50 (Pancreatic CFPAC): 6.31 | pIC50 (Osteosarcomas Hs888.T): 6.68 | pIC50 (Osteosarcomas MG3): 7.44 | pIC50 (Osteosarcomas KHOS_N/P): 7.16 | pIC50 (Bladder TCCSUP): 6.53

pIC50 (Colon HCT_116; [3]): 7.45 | pIC50 (Colon HCT_116; [4]): 7.55 | Fold IC50 (Colon HCT_116; [13]): 12 | pIC50 (Kidney ACHN; [5]): 7.98 | pIC50 (Kidney ACHN; [6]): 8.01 | pIC50 (Kidney ACHN; [7]): ~10.87 | Fold IC50 (Kidney ACHN; [13]): 48 | pIC50 (Liver Huh7): 7.69 | Fold IC50 (Liver Huh7; [13]): 3.8 | pIC50 (Liposarcoma 94T778): 7.59 | Fold IC50 (Liposarcoma 94T778; [13]): 3.3 | pIC50 (Leiomyosarcoma SK-UT-1B): 8.19 | Fold IC50 (Leiomyosarcoma SK-UT-1B; [13]): 3.5 | pIC50 (Osteosarcomas SJSA_1): 5.02 | Fold IC50 (Osteosarcomas SJSA_1; [13]): 0.2 | pIC50 [1]: 7.76 | Fold IC50 [1, 13]: 2.1 | pIC50 [2]: 8.12 | Fold IC50 [2, 13]: 4.8 | pIC50 (Bladder SW780): 6.66 | Fold IC50 (Bladder SW780; [13]): 3.3 | pIC50 (Lung NCI-H661): 7.94 | Fold IC50 (Lung NCI-H661; [13]): 3.2
SMILES: CCOc1cc(O)cc(/C=C/c2ccc(O)c(OC)c2)c1CC=C(C)C [Compound 8, (E)-3-Ethoxy-5-(4-hydroxy-3-methoxystyryl)-4-(3-methylbut-2-en-1-yl)phenol]
pIC50 (Bladder RT-112; [8]): 8.44 | pIC50 (Bladder RT-112; [9]): 8.39 | pIC50 (Bladder RT-112; [10]): ~8.25 | Fold IC50 (Bladder RT-112; [13]): 15 | pIC50 (Osteosarcomas T1-73): 8.41 | Fold IC50 (Osteosarcomas T1-73; [13]): 205 | pIC50 (Pancreatic CAPAN-1; [11]): 5.33 | pIC50 (Pancreatic CAPAN-1; [12]): 5.61 | Fold IC50 (Pancreatic CAPAN-1; [13]): 1.3 | pIC50 (Lung BEAS-2B): 7.82 | Fold IC50 (Lung BEAS-2B; [13]): 5.1 | pIC50 (Liver JHH-7): 6.28 | Fold IC50 (Liver JHH-7; [13]): 1.3 | pIC50 (Bladder 5637; [5]): 8.41 | pIC50 (Bladder 5637; [7]): ~8.03 | Fold IC50 (Bladder 5637; [13]): 8.9 | pIC50 (Liver JHH-6): 7.44 | Fold IC50 (Liver JHH-6; [13]): 4.7 | pIC50 (Pancreatic CFPAC): 7.08 | Fold IC50 (Pancreatic CFPAC; [13]): 6.0 | pIC50 (Osteosarcomas Hs888.T): 7.58 | Fold IC50 (Osteosarcomas Hs888.T; [13]): 8.1 | pIC50 (Osteosarcomas MG3): 8.16 | Fold IC50 (Osteosarcomas MG3; [13]): 5.2 | pIC50 (Osteosarcomas KHOS_N/P): 7.98 | Fold IC50 (Osteosarcomas KHOS_N/P; [13]): 6.6 | pIC50 (Bladder TCCSUP): 6.95 | Fold IC50 (Bladder TCCSUP; [13]): 2.6
